Laboratory results from patent US20190106454A1, “COMPOUNDS LINKED WITH A SACCHARIDE METAL COMPLEX AND USES THEREOF” (FRED HUTCHINSON CANCER RESEARCH CENTER, priority 2016, published 2019).
“Also recorded” adds a separate entry of the source. One block for each molecule: values may come before it.

How the values were obtained:
[1] = system: heme oxygenase 1 (HO-1); assay: Induction of HO-1 mRNA (RT-PCR) and protein (ELISA) in renal cortex and plasma; assay type: in vivo, mice; settings: for renal cortical HO-1 mRNA induction / increase in renal cortical HO-1 levels over baseline: 1 umole; for renal cortical HO-1 mRNA induction: RT-PCR (FIG. 11); for renal cortical HO-1 protein levels / increase in renal cortical HO-1 levels over baseline: ELISA
Excerpt: (§1) Methods. Male CD-1 mice (25-40 grams) Charles River, Wilmington, Mass.) were used for all experiments. They were housed under standard vivarium conditions with free food and water access. All experiments were approved by the Fred Hutchinson Cancer Research Center IACUC in accordance with NIH guidelines.
Effects of FeS, SnPP, and B12 on renal cortical induction of heme oxygenase 1 (HO-1). The following experiments assessed the effects of FeS, SnPP, and B12 on the possible induction of the cytoprotective protein HO-1. To this end, mice were injected with each of these agents, as noted above. Either 4 or 18 hrs later, they were anesthetized and the kidneys were removed through a midline abdominal incision. The renal cortices were dissected on ice and then extracted for protein and mRNA. The samples were then assayed for HO-1 protein by ELISA, and HO-1 mRNA by RT-PCR, factored by GAPDH levels. Five normal mice provided control values. […]

[2] = system: kidney dysfunction in glycerol model rhabdomyolysis; settings: blocking HO with competitive inhibitor; cited from earlier work
[3] = system: Ferritin heavy (Fhc); assay: Ferritin heavy chain Western blotting of renal cortex; assay type: in vivo, mice; settings: 18 hr post treatment, Western blot band densitometry
Protocol: Ferritin heavy (Fhc) expression in renal cortex. HO-1 activity leads to increased Fhc expression. […] Because Fe sucrose also induces Fhc expression, the potential impact of SnPP treatment on this response was assessed (18 hrs post 1 mg FeS±concomitant SnPP treatment (n, 4 each)).

[4] = system: maleate-induced AKI in mice; assay: Maleate model of AKI; assay type: in vivo; settings: IV pre-treatment 18 hrs before IP Na maleate 800 mg/Kg, read 18 hrs post maleate
Excerpt: as §1
Effects of Fe sucrose (FeS)/tin protoporphyrin (SnPP) on AKI severity. Maleate model of AKI. When injected into rodents, maleate undergoes relatively selective proximal tubule cell uptake via organic anion transporters. Once intracellular accumulation occurs, maleate is a preferred substrate for succinyl-CoA:3-oxoacid CoA transferase. […] Ample levels of CoA are essential for fatty acid “activation”, allowing for their subsequent metabolism through the Krebs cycle, yielding ATP. In the absence of this process, proximal tubule ATP depletion and cell injury result. Additionally, maleate conjugates the sulfhydryl group of glutathione (GSH), culminating in GSH depletion and potential oxidant tubular stress.
The following experiment tested whether FeS, SnPP or combined FeS+SnPP can mitigate this form of acute kidney injury (AKI). Twenty seven mice were subjected to 200 μL IV tail injections of one of the following: 1) vehicle (phosphate buffered saline, PBS; n, 10); 2) 1 mg FeS (American Regent (Shirley, N.Y.; n, 3); 3) 1 μmole SnPP (Frontier Scientific, Logan, Utah; n 7), or FeS+SnPP, n, 7). Eighteen hrs later, all mice received an IP injection of Na maleate (800 mg/Kg; in 500 ul of PBS). Eighteen hrs later, the mice were deeply anesthetized with pentobarbital (50 mg/Kg IP), the abdominal cavities were opened, and blood samples were obtained from the abdominal vena cava. The severity of kidney injury was assessed by determining plasma blood urea nitrogen (BUN) and plasma creatinine (PCr) concentrations.
Maleate model of AKI. Mice received tail vein injections of either combination of FeS+B12 or vehicle (n, 6 per group). Eighteen hrs later they received IP maleate injections, as noted above. The severity of AKI was determined 18 hrs post maleate injection by terminal BUN and PCr assessments.

[5] = system: renal injury in rats; settings: cited from earlier work
[6] = system: haptoglobin; assay: Induction of haptoglobin mRNA and protein in renal cortex and plasma; assay type: in vivo, mice; settings: 1 umole; for renal cortical haptoglobin mRNA induction: 4 hrs post injection, RT-PCR (FIG. 11)
Protocol: MesP up-regulates Nrf2 sensitive genes. Mice are injected MesP (0.1-2.5 umoles/mouse) or with a MesP vehicle. At either 4 or 18 hrs, the mice are deeply anesthetized with pentobarbital and the kidneys are removed through a midline abdominal incision. The renal cortices are dissected on ice, extracted for protein and mRNA, and assayed for HO-1 and haptoglobin protein and mRNA levels by ELISA and competitive RT-PCR, respectively. In this regard, both HO-1 and haptoglobin are Nrf2 sensitive genes. An increase in HO-1 and haptoglobin mRNA and protein levels at 4 hrs and 18 hrs post MesP administration, respectively, is measured to confirm MesP, like SnPP, induces Nrf2 signaling.

[7] = system: heme oxygenase 1 (HO-1); assay: Induction of HO-1 mRNA (RT-PCR) and protein (ELISA) in renal cortex and plasma; assay type: in vivo, mice; settings: 1 umole, 18 hrs post injection
[8] = system: renal ischemia-reperfusion (IRI) induced AKI in mice; assay: Renal ischemic-reperfusion injury (IRI) model of AKI; assay type: in vivo; settings: 1 umole 18 hrs before 22 min bilateral ischemic injury
Protocol: as §1
Renal ischemic—reperfusion injury (IRI) model of AKI. The following experiment assessed whether combination FeS+SnPP can mitigate the renal artery occlusion model of AKI. Mice received 200 μl tail vein injections of either PBS (n, 9) or FeS+SnPP (n, 8), as noted above. Eighteen hrs later, the mice were deeply anesthetized with pentobarbital (40-50 mg/Kg IP), the abdominal cavities were opened, the renal pedicles were identified and both were occluded with microvascular clamps. Body temperature was maintained at 36-37° C. throughout. Following 22 minutes of bilateral renal ischemia, the clamps were removed, uniform reperfusion was visually confirmed by the reappearance of a normal renal color (loss of tissue cyanosis), and then the abdominal cavities were closed in two layers with silk suture. […] The severity of renal injury was determined by BUN and PCr concentrations.
Protection against acute kidney injury. […] AKI severity are determined by degrees of BUN and plasma creatinine increases.

renal cortical HO-1 mRNA induction ([1]; 4 hrs post injection): raised
Molecule: C=Cc1c2[n-]c(c1C)/C=c1\[n-]/c(c(C)c1C=C)=C\c1[n-]c(c(CCC(=O)O)c1C)/C=c1\[n-]c(c(C)c1CCC(=O)O)=C2.[Sn+4] [SnPP, tin protoporphyrin]
kidney dysfunction [2]: exacerbated kidney dysfunction
increase in Fhc expression over control values [3]: 24%
severity of renal injury (BUN and PCr) [4]: Neither SnPP alone nor FeS alone significantly altered the severity of renal injury
severity of renal injury (BUN and PCr) ([4]; listed as Sn-protoporphyrin): Neither Sn-protoporphyrin alone nor iron-sucrose alone significantly altered the severity of renal injury
fractional excretion of sodium ([5]; day 2 after cisplatin, rats): increased
renal blood flow rates ([5]; day 2 after cisplatin, rats): reduced
renal vascular resistance ([5]; day 2 after cisplatin, rats): increased
inulin clearances ([5]; day 5): lower
serum creatinine values ([5]; days 3 through 5): higher
renal injury ([5]; pretreatment): exacerbated renal injury
renal cortical haptoglobin mRNA induction [6]: raised

Molecule: Fe sucrose [FeS]
renal cortical HO-1 protein levels ([1]; 4 hrs post IV injection): marked HO-1 protein increases
renal cortical HO-1 protein levels ([1]; 18 hrs post IV injection): remained elevated
renal cortical HO-1 protein levels ([1]; 18 hrs post IV injection, listed as iron-sucrose): persists; also recorded: remained elevated
increase in Fhc expression over control values [3]: 1-4%
severity of renal injury (BUN and PCr) [4]: Neither SnPP alone nor FeS alone significantly altered the severity of renal injury
severity of renal injury (BUN and PCr) ([4]; listed as iron-sucrose): Neither Sn-protoporphyrin alone nor iron-sucrose alone significantly altered the severity of renal injury

renal cortical HO-1 protein levels ([1]; 4 hrs post IV injection): marked HO-1 protein increases
renal cortical HO-1 protein levels ([1]; 18 hrs post IV injection): persists
Molecule: cyanocobalamin [B12]

increase in renal cortical HO-1 levels over baseline ([1]; 4 hrs post injection): 3 fold
renal cortical HO-1 mRNA induction ([1]; 4 hrs post injection): raised
increase in renal cortical HO-1 levels over baseline ([1]; 18 hrs post injection): 5 fold
rise in plasma HO-1 levels [7]: 15 fold
Molecule: tin mesoporphyrin [SnMeP]
ischemic damage (BUN and plasma creatinine concentrations) [8]: lessening of ischemic damage
plasma haptoglobin levels ([6]; 4 and 18 hrs post injection): stepwise increases
renal cortical haptoglobin levels ([6]; 4 and 18 hrs post injection): stepwise increases
renal cortical haptoglobin mRNA induction [6]: raised
